Measured values reported in the supplement of paper PMC7695840.
pIC50: −log10 of the molar value. Where a name gives a salt, the structure may show the parent alone.

Legend:
[1] = system: Staphylococcus aureus MW2 (mecA+); assay: IC50 (growth, competition assay); conditions: cefoxitin: subinhibitory
Method in brief: (§1)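 Per plate, DsRed (540/590) and GFP (485/520) readings were normalized between the medians of the single-strain controls, after which No Treatment was fixed at 0.5. These readings came from a 1:1 mix of pre-induced fluorescent S. aureus MW2 strains with and without the resistance gene, grown for 20 h at 37 °C and 90% humidity, unshaken, in LB with a daily-set subinhibitory drug dose in 1536-well plates. Per-strain IC50 meant the dose halving the No Treatment signal, or the maximal signal.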

[2] = system: Staphylococcus aureus MW2 delta-mecA (mecA-); assay: IC50 (growth, competition assay); conditions: cefoxitin: subinhibitory
Method in brief: as §1

Compound	pIC50 ([1]; fluorescent label: DsRed)	pIC50 ([1]; fluorescent label: GFP)	pIC50 ([2]; fluorescent label: DsRed)	pIC50 ([2]; fluorescent label: GFP)
O=C(N[C@@H](Cc1ccccc1)C(=O)CCl)OCc1ccccc1 [Z-L-Phe chloromethyl ketone]	> 5.01	> 5.01	> 5.01	> 5.01
C#CCCCCCCCCCCCC(O)CC(O)CO.C=CCCCCCCCCCCCC(O)CC(O)CO (centres undefined)	4.78	4.58	> 5.01	> 5.01
CC1(C)S[C@@H]2[C@H](NC(=O)[C@H](N)c3ccccc3)C(=O)N2[C@H]1C(=O)O [Ampicillin sodium]	> 5.01	4.82	> 5.01	> 5.01
CCc1cc(-c2n[nH]c(C)c2-c2ccc3c(c2)OCCO3)c(O)cc1O	4.08	3.99	4.81	> 5.01
CSc1ccc2c(c1)N(CCC1CCCCN1C)c1ccccc1S2 (centres undefined) [Thioridazine hydrochloride]	4.24	4.30	> 5.01	4.83
CCCCCCCCCCCCCCCC[N+](C)(C)C [CETAB]	> 5.01	> 5.01	> 5.01	> 5.01
OC(CNCC(O)C1CCc2cc(F)ccc2O1)C1CCc2cc(F)ccc2O1 (centres undefined) [Nebivolol]	3.97	3.95	4.46	4.71
Cc1nnc(SCC2=C(C(=O)O)N3C(=O)[C@@H](NC(=O)Cn4cnnn4)[C@H]3SC2)s1 [ANCEF]	4.75	4.83	> 5.01	> 5.01
Cc1cc(N)c2ccccc2[n+]1CCCCCCCCCC[n+]1c(C)cc(N)c2ccccc21 [Dequalinium chloride hydrate]	> 5.01	> 5.01	> 5.01	> 5.01
C=C1c2cccc(O)c2C(=O)C2=C(O)[C@]3(O)C(=O)C(C(N)=O)=C(O)[C@@H](N(C)C)[C@@H]3[C@@H](O)[C@H]12 [RONDOMYCIN]	> 5.01	> 5.01	> 5.01	> 5.01
O=C1NC(=O)[C@@H](c2cn3c4c(cccc24)CCC3)[C@@H]1c1c[nH]c2ccccc12 [ARQ 197 (Tivantinib)]	3.97	3.95	4.49	4.24
O=C(O[C@H]1CN2CCC1CC2)N1CCc2ccccc2[C@@H]1c1ccccc1 [VESICARE]	4.32	4.17	4.50	4.70
C[C@H]1O[C@@H](n2cc(F)c(=O)[nH]c2=O)[C@H](O)[C@@H]1O [Doxifluridine]	5.41	4.96	6.18	> 6.30
CN1CCN(c2c(F)cc3c(=O)c(C(=O)O)cn4c3c2SCC4)CC1 [TEBRAXIN]	> 5.01	> 5.01	> 5.01	> 5.01
O=C(O[C@@H]1Cc2c(O)cc(O)cc2O[C@@H]1c1cc(O)c(=O)c2c(O)c(O)cc([C@H]3Oc4cc(O)cc(O)c4C[C@H]3O)c2c1)c1cc(O)c(O)c(O)c1 [THEAFLAVIN MONOGALLATES]	3.95	4.03	4.83	4.69
O=C(O[C@@H]1Cc2c(O)cc(O)cc2O[C@@H]1c1cc(O)c(=O)c2c(O)c(O)cc([C@H]3Oc4cc(O)cc(O)c4C[C@H]3OC(=O)c3cc(O)c(O)c(O)c3)c2c1)c1cc(O)c(O)c(O)c1 [THEAFLAVIN DIGALLATE]	< 3.82	< 3.82	4.08	4.24
O[C@@H](COc1cccc2ncccc12)CN1CCN([C@@H]2c3ccccc3[C@@H]3[C@H](c4ccccc42)C3(F)F)CC1	4.28	4.37	4.84	> 5.01
COc1cc(NS(C)(=O)=O)ccc1Nc1c2ccccc2nc2ccccc12 [Amsacrine hydrochloride]	3.97	4.01	> 5.01	> 5.01
CN(C)C[C@H](O)Cn1c2ccc(Br)cc2c2cc(Br)ccc21 (racemic) [Wiskostatin]	4.76	4.69	> 5.01	> 5.01
O=C1NC(=O)[C@@]2(CCOc3ccc(F)cc32)N1 [Sorbinil]	> 5.01	> 5.01	> 5.01	> 5.01
Brc1c(Br)c(Br)c2[nH]cnc2c1Br [TBBz]	4.91	4.52	4.93	4.95

Compound	pIC50 ([1]; fluorescent label: DsRed)	pIC50 ([1]; fluorescent label: GFP)	pIC50 ([2]; fluorescent label: DsRed)	pIC50 ([2]; fluorescent label: GFP)
CO/N=C(\C(=O)N[C@@H]1C(=O)N2C(C(=O)O)=C(CSc3nnnn3C)CS[C@H]12)c1csc(N)n1 [CEFMAX]	> 5.01	> 5.01	> 5.01	> 5.01
Cc1cc(NC2CCCCC2)nc(-n2nc(C)cc2C)n1 [CyPPA]	4.40	3.97	4.73	4.77
CC(C)(C)c1cc(C(C)(C)C)c(NC(=O)c2c[nH]c3ccccc3c2=O)cc1O [Ivacaftor (VX-770)]	5.01	4.83	5.90	5.80
CC[C@H]1OC(=O)[C@H](C)[C@@H](O[C@H]2C[C@@](C)(OC)[C@@H](O)[C@H](C)O2)[C@H](C)[C@@H](O[C@@H]2O[C@H](C)C[C@H](N(C)C)[C@H]2O)[C@](C)(O)C[C@@H](C)C(=O)[C@H](C)[C@@H](O)[C@]1(C)O [Erythromycin (E-Mycin)]	5.85	5.79	> 6.30	> 6.30
CN(Cc1cnc2nc(N)nc(N)c2n1)c1ccc(C(=O)N[C@@H](CCC(=O)O)C(=O)O)cc1 [Abitrexate (Methotrexate)]	3.94	3.99	4.44	4.50
CN(C)[C@@H]1C(=O)C(C(N)=O)=C(O)[C@@]2(O)C(=O)C3=C(O)c4c(O)ccc(Cl)c4[C@@H](O)[C@H]3C[C@@H]12 [Demeclocycline hydrochloride]	> 5.01	> 5.01	> 5.01	> 5.01
Oc1c(I)cc(I)c2cccnc12 [IOQUIN]	4.68	4.75	> 5.01	> 5.01
COc1ccnc2[nH]cc(C(=O)C(=O)N3CCN(C(=O)c4ccccc4)C[C@H]3C)c12	< 3.82	< 3.82	< 3.82	< 3.82
O=C(O)c1ccc(Nc2ncc3c(n2)-c2ccc(Cl)cc2C(c2c(F)cccc2F)=NC3)cc1 [MLN8054]	4.86	4.60	5.41	5.61
N#CC(c1ccc(Cl)cc1)c1c(Cl)cc(-n2ncc(=O)[nH]c2=O)cc1Cl (centres undefined) [CLINACOX]	4.82	4.64	> 5.01	> 5.01
CC[C@H]1OC(=O)C[C@@H](O)[C@H](C)[C@@H](O[C@@H]2O[C@H](C)[C@@H](O)[C@H](N(C)C)[C@H]2O)[C@@H](CCN2C[C@H](C)C[C@H](C)C2)C[C@@H](C)C(=O)/C=C/C(C)=C/[C@@H]1CO[C@@H]1O[C@H](C)[C@@H](O)[C@@H](OC)[C@H]1OC [Tilmicosin]	> 5.01	> 5.01	> 5.01	> 5.01
CN(N=O)C(=O)N[C@@H]1[C@@H](O)[C@H](O)[C@@H](CO)O[C@@H]1O [ZANOSAR]	> 5.01	> 5.01	> 5.01	> 5.01
C=C(NC(=O)C(=C)NC(=O)c1csc(C2=N[C@@H]3c4csc(n4)[C@H]4NC(=O)c5csc(n5)[C@H]([C@](C)(O)[C@@H](C)O)NC(=O)[C@H]5CSC(=N5)/C(=C/C)NC(=O)[C@H]([C@@H](C)O)NC(=O)c5csc(n5)[C@]3(CC2)NC(=O)[C@H](C)NC(=O)C(=C)NC(=O)[C@H](C)NC(=O)[C@H]([C@@H](C)CC)N[C@@H]2C=Cc3c([C@H](C)O)cc(nc3[C@H]2O)C(=O)O[C@@H]4C)n1)C(N)=O [BRYAMYCIN]	> 5.01	> 5.01	> 5.01	> 5.01
CN1CCN(CCCN2c3ccccc3Sc3ccc(C(F)(F)F)cc32)CC1 [STELAZINE]	4.26	4.25	4.74	4.80
Cc1onc(-c2ccccc2)c1C(=O)N[C@@H]1C(=O)N2[C@@H]1SC(C)(C)[C@@H]2C(=O)O [Oxacillin sodium monohydrate]	> 5.01	> 5.01	> 5.01	> 5.01
CNCCCC12CCC(c3ccccc31)c1ccccc12 [LUDIOLMIL]	< 3.82	3.87	4.51	4.31
C[C@@H]1CN(c2c(F)c(N)c3c(=O)c(C(=O)O)cn(C4CC4)c3c2F)C[C@H](C)N1 [ZAGAM]	> 5.01	> 5.01	> 5.01	> 5.01
O=C(O)c1cccnc1Nc1cccc(C(F)(F)F)c1 [Niflumic acid]	4.73	4.67	4.59	4.49
COc1cc([C@@H]2c3cc4c(cc3[C@@H](O[C@@H]3O[C@@H]5CO[C@@H](C)O[C@H]5[C@H](O)[C@H]3O)[C@H]3COC(=O)[C@H]23)OCO4)cc(OC)c1O [Etoposide]	4.83	4.83	> 5.01	> 5.01
CC1=C2C(=CO[C@H](C)[C@H]2C)C(O)=C(C(=O)O)C1=O [CITRININ]	4.53	4.32	4.58	4.53
